Measured values as given in ChEMBL document CHEMBL5506011, “Discovery of novel and selective farnesoid X receptor antagonists through structure-based virtual screening, preliminary structure-activity relationship study, and biological evaluation” (Eur J Med Chem, 2024).

Assays:
Assay type in all cases: organism-based
[1] = Toxicity in male C57BL/6 mouse assessed as alanine transaminase (ALT) level in serum at 20 mg/kg, ip measured after 4 days; conditions: in vivo, 96 h, time 4 day
[2] = Toxicity in male C57BL/6 mouse assessed as total bile acid level in serum at 20 to 40 mg/kg, po measured after 4 days; conditions: in vivo, 96 h, dose 20-40 mg/kg, time 4 day
[3] = Toxicity in male C57BL/6 mouse assessed as aspartate transaminase (AST) level in serum at 20 mg/kg, ip measured after 4 days; conditions: in vivo, 96 h, time 4 day
[4] = Toxicity in male C57BL/6 mouse assessed as total bile acid level in serum at 20 mg/kg, ip measured after 4 days; conditions: in vivo, 96 h, time 4 day
[5] = Toxicity in male C57BL/6 mouse assessed as aspartate transaminase (AST) level in serum at 20 to 40 mg/kg, po measured after 4 days; conditions: in vivo, 96 h, dose 20-40 mg/kg, time 4 day

Measured: Activity

Cc1ccc(C)c(OCCCC(C)(C)C(=O)NCC(=O)c2ccc(O)cc2)c1
Non-Toxic: all assays above
